Results on one substance are retold here after US11274131B2, “IgM-mediated receptor clustering and cell modulation” (MAYO FOUNDATION FOR MEDICAL EDUCATION AND RESEARCH, priority 2007, dated 2022).

Assay [1] relates to mouse bone marrow-derived DC. Put plainly: Immunoblot of DAP12 and Syk phosphorylation in mouse DC. It is filed as cell-based. Here is the method:
FIG. 6A to 6C is a series of histograms and pictures showing that TREM-2 is recruited into the MTAb-induced cap on mouse DC and expression of TREM-2 is important for MTAb-induced phosphorylation of the adapter DAP-12 and the protein kinase Syk. FIG. 6A: six day cultures of bone marrow-derived mouse DC were differentiated in GM-CSF and IL-4 were tagged with antibodies specific for the class II molecule IA^b (25-9-17-APC) and for TREM-2 (237916-PE) for 15 minutes prior to stimulation with the MTAb B7-DC XAb (open histograms) or with isotype control antibody sHIgM39 (filled histograms). Cells were fixed in 0.1% paraformaldehyde prior to analysis by flow cytometry. FRET between PE and APC was assessed collecting light emitted by APC following excitation of PE with a 488 nm laser. Expression of TREM-2 on the cells was assessed by staining with 237916-PE antibody alone (open histogram) or isotype control antibody (closed histogram, bottom-right panel). For FIG. 6B, mouse bone marrow-derived DC were transduced on day 2 of culture with a retrovirus expressing an […] specific for TREM-2 or a control virus containing a scrambled sequence. On day 5 of culture, the transduced cells were not treated (0′ time), activated with the isotype control antibody sHIgM39, or activated with B7-DC XAb for 5 minutes. DAP12 was immunoprecipitated from cell lysates with antibody MC457, resolved by electrophoresis, and the blotted filters were probed with the phosphotyrosine-specific antibody 4G10. FIG. 6C: the lysates used in the experiments from FIG. 6B were immunoprecipitated with the Syk-specific antibody (4D10) and analyzed by western blot for the presence of phosphotyrosine.
For transducing DC with the virus, 1 ml of supernatant containing the scrambled virus or shDNA containing dominant negative TREM-2 virus was mixed with 2 ml of RPMI. Cytokines were added to a final concentration of 10 ng/ml murine GM-CSF and 1 ng/ml murine IL-4 at day 2 of DC culture. […]
In experiments involving assessment of the phosphorylation status of various protein kinases using whole cell lysate, dendritic cells of mouse or human origin or Jurkat cells were stimulated at the indicated times with control antibody or B7-DC XAb, and were lysed on ice for 10 minutes in 1 ml buffer containing 20 mM Tris-HCl, 40 mM NaCl, 5 mM EDTA, 50 mM NaF, 30 mM Na4P2O7, 0.1% BSA, 1 mM Na3VO4, 1 mM PMSF, 5 μg/ml aprotinin, 10 μg/ml leupeptin, and 1% Triton X-100. […] Tyrosine-phosphorylated proteins were detected using the anti-phosphotyrosine specific antibody, 4G10, followed by goat anti-mouse IgG coupled to Horse Radish Peroxidase (Santa Cruz Biotechnology) and the SuperSignal detection system (Pierce Biotechnology, Rockford, Ill.). […]
(In general: A western blot detects proteins with antibodies after separation by electrophoresis.)

In another assay the test system is human DC. The experiment in a line: Cap formation / FRET on human DC. It is filed as cell-based. Here is the method:
DC of murine origin were stained with anti-Class II-FITC (MF/114.15.2), and either anti-CD80-PE (16.10A1)/CD86-PE (GL-1), or anti-CD11c-PE (N418). DC of human origin were stained with anti-Class II-FITC (LN3) and anti-CD80-PE (2D10.4)/CD86-PE (IT2.2). All incubations were carried out for 15 minutes at 37° C. The cells were subsequently stimulated with 10 μg/ml of control (sHIgM39) or B7-DC XAb, and were observed every 5 minutes using time lapse confocal imaging at 40.times magnification with a LSM510 Laser scanning confocal microscope having a 37° C. stage (Carl-Zeiss Inc, Oberkochen, Germany). Jurkat cells were pre stained with anti-human CD28-FITC (CD28.2) for 15 minutes, followed by addition of 10 μg/ml of MTAb control antibody sHIgM39, MTAb sHIgM22, or anti-K^b IgM (28-13-3), and were and analyzed in the same manner as the DC.
The flow cytometry approach for FRET was used as a way of quantifying molecular aggregation on the cell surface and was carried out as described previously (Block et al. (2001) J. Immunol. 167:821-826). Briefly, DC of murine origin were stained with anti-Class II APC (M5/114.15.2) and anti-CD80-PE (16.10A1)/CD86-PE(GL-1) for 15 minutes to visualize FRET between these molecules. […] Data collected as log10 fluorescence were analyzed using CELLQUEST™ (BD Biosciences). […]

Take “B7-DC XAb: human monoclonal IgM from a Waldenstrom's macroglobulinemia patient that binds and cross-links B7-DC on DC”: the “phosphorylation of DAP12 and Syk” value in assay [1] (DC transduced with scrambled shDNA) is “proceeded in the same manner”; in assay [1] (DC transduced with shDNA for TREM-2), “absence of phosphorylation of DAP12 and Syk”; in assay [1] (TREM-2 KO DC), “not induced”; in assay [1] (wild type DC), “readily induced”. The “reorganization of tagged class II, CD80, CD86 into a capped cluster” value in the assay on human DC is reported as “reorganized into a distinctly capped cluster”. Also, the “FRET among class II, CD80 and CD86” value in the assay on human DC (within ten minutes) was “strong FRET signal”.
